From ChEMBL document CHEMBL1201862, “PubChem BioAssay data set” (2004)
Active and inactive are the calls of the source.

How the values were obtained:
[1] = biological target: T1, Ubiquitin carboxyl-terminal hydrolase BAP1 (Homo sapiens, UniProt Q92560); assay: BAP1 deubiquitinase inhibitors, dose response, biochemical (AID 714); assay type: functional
T1 sequence (Q92560 whole entry): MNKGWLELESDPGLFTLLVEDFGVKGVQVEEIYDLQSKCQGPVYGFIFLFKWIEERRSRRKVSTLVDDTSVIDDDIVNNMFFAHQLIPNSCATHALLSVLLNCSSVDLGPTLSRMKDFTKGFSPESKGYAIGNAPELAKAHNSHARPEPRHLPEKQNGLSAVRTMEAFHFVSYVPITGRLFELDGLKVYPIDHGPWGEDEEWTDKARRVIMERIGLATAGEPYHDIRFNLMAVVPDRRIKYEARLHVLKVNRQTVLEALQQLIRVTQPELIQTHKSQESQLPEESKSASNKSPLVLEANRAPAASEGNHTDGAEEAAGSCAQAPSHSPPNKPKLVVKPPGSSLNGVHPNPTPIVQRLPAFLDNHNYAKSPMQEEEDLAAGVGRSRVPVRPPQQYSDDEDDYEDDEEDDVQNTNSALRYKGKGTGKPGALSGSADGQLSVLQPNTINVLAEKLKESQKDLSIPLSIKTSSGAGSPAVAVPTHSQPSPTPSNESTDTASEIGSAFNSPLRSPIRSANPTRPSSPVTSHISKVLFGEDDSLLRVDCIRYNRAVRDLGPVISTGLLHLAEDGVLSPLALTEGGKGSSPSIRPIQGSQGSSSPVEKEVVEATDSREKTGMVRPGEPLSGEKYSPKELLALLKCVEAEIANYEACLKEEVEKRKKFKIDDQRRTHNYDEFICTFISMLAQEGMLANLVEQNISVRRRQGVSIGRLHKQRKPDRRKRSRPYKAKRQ

[2] = biological target: Kallikrein-7 (Homo sapiens, UniProt P49862); assay: Fluorescence Intensity-based biochemical primary high throughput dose response assay to identify activators of kallikrein-7 (K7) zymogen.
[3] = P. falciparum Dd2 growth inhibitors, dose response, SYBR Green, cherry-picked samples (AID 1159567); assay type: functional, cell-based
[4] = HepG2 cell cytotoxicity, dose response, cytotoxicity control, cherry-picked samples (AID 1159577); assay type: functional, cell-based
[5] = P. falciparum 3D7-ScDHODH growth inhibitors, dose response, SYBR Green, dry powder samples (AID 1159570); assay type: functional, cell-based;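 also: parasite growth measured after 72 hours of compound exposure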
[6] = HepG2 cell cytotoxicity, dose response, cytotoxicity control, plate reader, dry powder samples (AID 1159569); assay type: functional, cell-based;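 also: inhibitor potency with signal falling toward the positive control level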
[7] = P. falciparum Dd2 growth inhibitors, dose response, SYBR Green, dry powder samples (AID 1159566); assay type: functional, cell-based;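 also: potency for growth inhibition with lower SYBR green DNA signal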
[8] = P. falciparum ATP4 D1247Y mutant growth inhibitors, dose response, NITD609-resistant line, SYBR Green, dry powder (AID 1159571); assay type: functional, cell-based;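 also: parasites synchronized at ring stage by sorbitol before testing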

Chain of Kallikrein-7 (P49862 whole entry): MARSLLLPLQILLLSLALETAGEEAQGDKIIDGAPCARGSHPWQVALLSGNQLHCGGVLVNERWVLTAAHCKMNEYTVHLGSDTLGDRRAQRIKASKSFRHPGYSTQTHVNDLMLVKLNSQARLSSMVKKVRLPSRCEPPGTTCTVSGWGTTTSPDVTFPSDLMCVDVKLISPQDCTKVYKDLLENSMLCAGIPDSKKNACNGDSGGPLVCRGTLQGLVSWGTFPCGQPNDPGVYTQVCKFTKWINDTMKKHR

In the case of `CCCCNC(=O)c1cnc2ccc(S(=O)(=O)Nc3ccc(OCC)cc3)cc2c1O`, the IC50 [1] is reported as > 50 µM (not active).
In the case of `CCOc1ccc(-c2cc(C(=O)N3CCN(C)CC3)c3ccccc3n2)cc1`, the EC50 [2] is reported as > 69.5 µM (inactive).
With `CCCO/C(O)=C1\C(C)=NC2=C(C(=O)CCC2)C1c1cccc(OC)c1OC` (stereo not drawn) the IC50 [1] was 33.9 µM (not active).
For `CC(C)CC#Cc1ccc([C@@H]2[C@@H](CO)N3CCCCN(S(=O)(=O)Cc4ccccc4)C[C@@H]23)cc1`, the AC50 [3] was 5.76 µM (active) and the AC50 [4] was > 39 µM (inactive).
For `COc1ccc2c3c([nH]c2c1)[C@H](CO)N(C(=O)C1CCCC1)CC31CCN(Cc2cccc(F)c2)CC1`, the AC50 [3] was 3.49 µM (active) and the AC50 [4] was 9.75 µM (active).
In the case of `COc1cccc(NC(=O)N(C)C[C@@H]2Oc3cc(C#Cc4ccccc4)ccc3S(=O)(=O)N([C@H](C)CO)C[C@@H]2C)c1`, the AC50 [5] is reported as 975 nM (active), the AC50 [6] is reported as > 100 µM (inactive) and the AC50 [3] is reported as 1.19 µM (active). For the same molecule, the AC50 [7] was 539 nM (active) and the AC50 [8] was 740 nM (active).
With `COc1ccc2c3c(n(C)c2c1)[C@H](CO)NCC31CCN(Cc2ccc(-c3ccccn3)cc2)CC1` the AC50 [5] was 265 nM (active), the AC50 [6] was 20 µM (active) and the AC50 [3] was 0.322 µM (active). The AC50 [7] was 135 nM (active), the AC50 [4] was 20.3 µM (active) and the AC50 [8] was 222 nM (active).
